In patent US20230295152A1 (SENDA BIOSCIENCES, INC., priority 2019, published 2023):

target: T1, AHR (Homo sapiens, UniProt P35869); assay: DRE-Luciferase Reporter Assay, HepG2 AhR-Lucia reporter cells; format: cell-based; settings: with AHR activating ligand at EC50, read-out: HepG2-Luc IC50
T1 construct: other cell line with a DRE-luciferase reporter stably transfected; endogenous in cells; host or cells: HepG2 AhR-Lucia reporter cells
T1 sequence (P35869 11-848): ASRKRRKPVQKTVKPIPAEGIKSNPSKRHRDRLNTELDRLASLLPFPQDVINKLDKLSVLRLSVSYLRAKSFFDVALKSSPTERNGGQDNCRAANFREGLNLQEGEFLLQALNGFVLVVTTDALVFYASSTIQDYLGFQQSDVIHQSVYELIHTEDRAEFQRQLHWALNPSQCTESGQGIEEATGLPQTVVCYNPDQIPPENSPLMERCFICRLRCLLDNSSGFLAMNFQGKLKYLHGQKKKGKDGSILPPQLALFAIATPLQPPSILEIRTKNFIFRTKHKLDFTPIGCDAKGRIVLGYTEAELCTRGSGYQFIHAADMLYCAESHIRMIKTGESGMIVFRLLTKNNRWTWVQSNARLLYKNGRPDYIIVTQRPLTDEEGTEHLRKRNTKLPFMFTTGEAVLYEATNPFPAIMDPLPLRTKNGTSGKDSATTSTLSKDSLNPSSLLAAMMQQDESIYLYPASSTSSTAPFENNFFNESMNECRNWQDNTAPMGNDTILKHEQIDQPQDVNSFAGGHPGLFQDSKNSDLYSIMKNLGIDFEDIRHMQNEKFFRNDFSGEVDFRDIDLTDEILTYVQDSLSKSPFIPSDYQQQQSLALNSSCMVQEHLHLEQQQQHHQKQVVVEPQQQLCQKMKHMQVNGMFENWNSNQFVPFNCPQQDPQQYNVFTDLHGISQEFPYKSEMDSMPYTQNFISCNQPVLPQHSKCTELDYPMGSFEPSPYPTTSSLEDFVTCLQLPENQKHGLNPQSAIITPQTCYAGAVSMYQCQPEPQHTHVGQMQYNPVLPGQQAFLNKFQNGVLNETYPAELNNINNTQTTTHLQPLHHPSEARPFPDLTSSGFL
Description: AHR binds to Dioxin Responsive Elements (DRE) upstream of genes that it activates. One measure of AHR activity is activation of a reporter gene, such as luciferase, downstream of one or multiple DRE elements. Luciferase activity will reflect activation and inhibition of AHR in the cells expressing his reporter. 20000 Human HepG2 liver carcinoma—AhR-Lucia reporter cells or Human HT29 colon adenocarcinoma—AhR reporter cells or other cell line with a DRE-luciferase reporter stably transfected were plated in Eagle's Minimal Essential Medium, 10% heat-inactivated FBS, 1× non-essential amino acids Pen-Strep (10,000 U/mL) and Normocin (100 ug/mL) in plates (96-well, 384-well or other plates) and incubated overnight at 37° C. in a CO2 incubator and treated with and without AhR antagonists at a log dilution starting at 100 uM.
After 1 hr that cells were plated an AHR activating ligand, such as TCDD, kynurenine, ITE (2-(1H-indole-3-ylcarbonyl)-4-thiazolecarboxylic methyl ester), VAF347, BNF (beta-naphthoflavone), FICZ (6-formylindolo(3,2-b) carbazole) or other AHR ligands at their specific EC50 concentration, were added to the cells with or without AHR antagonist.
Cells were incubated for 24 or 48 hours or another time point and then, supernatant was analyzed for determination of luciferase activity as a read-out of the AHR activation or inhibition. Luciferase was measured with the commercial kit QUANTI-Luc™ assay solution kit from Invivogen following the manufacturer's instructions.
The level of luciferase with only agonist ligand added was the maximum signal while the luciferase with […] was the minimum signal. IC50 values were determined as the concentration which inhibits half of the luciferase activity.

| IC50 [nM] | SMILES |
| --- | --- |
| < 100 | O=c1c2cc(-c3ccc(C(F)(F)F)nc3)nc(-c3cccnc3)c2ncn1C1CCS(=O)(=O)C1 (stereo not drawn) [Compound 106, 3-(1,1-dioxidotetrahydrothiophen-3-yl)-8-(pyridin-3-yl)-6-(6-(trifluoromethyl)pyridin-3-yl)pyrido[3,4-d]pyrimidin-4(3H)-one] |
| 100 to 500 | C[C@@H](CO)n1cnc2c(-c3ccccn3)nc(-c3ccc(C(F)(F)F)nc3)cc2c1=O [Compound 180, (S)-3-(1-hydroxypropan-2-yl)-8-(pyridin-2-yl)-6-(6-(trifluoromethyl)pyridin-3-yl)pyrido[3,4-d]pyrimidin-4(3H)-one] |
| < 100 | O=c1c2cc(-c3ccc(C(F)(F)F)nc3)nc(-c3cccnc3)c2ncn1-c1ccccc1 [Compound 133, 3-phenyl-8-(pyridin-3-yl)-6-(6-(trifluoromethyl)pyridin-3-yl)pyrido[3,4-d]pyrimidin-4(3H)-one] |
| < 100 | O=c1c2cc(-c3ccc(C(F)(F)F)nc3)nc(-c3cccnc3)c2ncn1-c1cccnc1 [Compound 118, 3,8-di(pyridin-3-y1)-6-(6-(trifluoromethyl)pyridin-3-yl)pyrido[3,4-d]pyrimidin-4(3H)-one] |
| < 100 | CC(C)[C@@H](CO)n1cnc2c(-c3cc(F)cc(F)c3)nc(-c3cc(F)cc(F)c3)cc2c1=O [Compound 35] |
| 100 to 500 | C[C@@H](CO)n1cnc2c(-c3ccc(=O)[nH]c3)nc(-c3ccc(Cl)cc3)cc2c1=O [Compound 2] |
| < 100 | C[C@@H](CO)n1cnc2c(N3CCCCC3)nc(-c3ccc(C(F)(F)F)nc3)cc2c1=O [Compound 175, (S)-3-(1-hydroxypropan-2-yl)-8-(piperidin-1-yl)-6-(6-(trifluoromethyl)pyridin-3-yl)pyrido[3,4-d]pyrimidin-4(3H)-one] |
| > 500 | C[C@@H](CO)n1cnc2c(-c3ccc(=O)n(C)c3)nc(-c3ccc(Cl)cc3)cc2c1=O [Compound 73] |
| 100 to 500 | C[C@@H](CO)n1cnc2c(-c3ccc(C(F)(F)F)nc3)nc(-c3ccc(C(F)(F)F)nc3)cc2c1=O [Compound 69] |
| < 100 | O=c1[nH]cnc2c(-c3cccnc3)nc(-c3ccc(C(F)(F)F)nc3)cc12 [Compound 119, 8-(pyridin-3-y1)-6-(6-(trifluoromethyl)pyridin-3-yl)pyrido[3,4-d]pyrimidin-4(3H)-one] |
| > 500 | C[C@@H](CO)n1cnc2c(C3CCCCC3)nc(-c3ccc(C(F)(F)F)cn3)cc2c1=O [Compound 189, (S)-8-cyclohexyl-3-(1-hydroxypropan-2-yl)-6-(5-(trifluoromethyl)pyridin-2-yl)pyrido[3,4-d]pyrimidin-4(3H)-one] |
| < 100 | O=c1c2cc(-c3ccc(OC(F)(F)F)cc3)nc(-c3cccnc3)c2ncn1CC(O)C(F)(F)F (stereo not drawn) [Compound 14] |
| < 100 | CC(C)[C@@H](CO)n1cnc2c(-c3cccc(F)c3)nc(-c3ccc(Cl)cc3)cc2c1=O [Compound 90] |
| < 100 | O=c1c2cc(-c3ccc(Cl)cc3)nc(-c3cccc(F)c3)c2ncn1C[C@@H](O)C(F)(F)F (stereo in doubt) [Compound 42] |
| > 500 | C[C@@H](CO)n1cnc2c(-c3cccnc3)nc(-c3cnnn3C)cc2c1=O [Compound 184, (S)-3-(1-hydroxypropan-2-yl)-6-(1-methyl-1H-1,2,3-triazol-5-yl)-8-(pyridin-3-yl)pyrido[3,4-d]pyrimidin-4(3H)-one] |
| < 100 | COC(=O)[C@H](C)n1cnc2c(-c3cccnc3)nc(-c3ccc(C(F)(F)F)nc3)cc2c1=O [Compound 127, Methyl (S)-2-(4-oxo-8-(pyridin-3-yl)-6-(6-(trifluoromethyl)pyridin-3-yl)pyrido[3,4-d]pyrimidin-3(4H)-yl)propanoate] |
| > 500 | CC(C)(O)Cn1cnc2c(-c3cccnc3)nc(-c3cccnc3C(F)(F)F)cc2c1=O [Compound 80] |
| 100 to 500 | C[C@@H](CO)n1cnc2c(-c3cccnc3)nc(-c3cccnc3)cc2c1=O [Compound 20] |

| IC50 [nM] | SMILES |
| --- | --- |
| < 100 | O=c1c2cc(-c3cnc(C(F)(F)F)s3)nc(-c3cccnc3)c2ncn1[C@H]1COC[C@@H]1O [Compound 169, 3-((3S,4R)-4-hydroxytetrahydrofuran-3-yl)-8-(pyridin-3-yl)-6-(2-(trifluoromethyl)thiazol-5-yl)pyrido[3,4-d]pyrimidin-4(3H)-one] |
| > 500 | Cc1cnc(-c2cc3c(=O)n([C@@H](C)CO)cnc3c(-c3cccnc3)n2)nc1 [Compound 187, (S)-3-(1-hydroxypropan-2-yl)-6-(5-methylpyrimidin-2-yl)-8-(pyridin-3-yl)pyrido[3,4-d]pyrimidin-4(3H)-one] |
| > 500 | CC(C)(O)Cn1cnc2c(-c3cccnc3)nc(-c3cccnc3)cc2c1=O [Compound 59] |
| < 100 | C[C@@H](O)Cn1cnc2c(-c3cnn(C)c3)nc(-c3ccc(C(F)(F)F)nc3)cc2c1=O [Compound 108, (R)-3-(2-hydroxypropyl)-8-(1-methyl-1H-pyrazol-4-yl)-6-(6-(trifluoromethyl)pyridin-3-yl)pyrido[3,4-d]pyrimidin-4(3H)-one] |
| < 100 | O=c1c2cc(-c3ccc(OC(F)(F)F)cc3)nc(-c3cccnc3)c2ncn1CCO [Compound 72] |
| < 100 | COC[C@H](C)n1cnc2c(-c3cccnc3)nc(-c3ccc(C)cc3)cc2c1=O [Compound 45, (S)-3-(1-methoxypropan-2-yl)-8-(pyridin-3-yl)-6-(p-tolyl)pyrido[3,4-d]pyrimidin-4(3H)-one] |
| > 500 | C[C@@H](CO)n1cnc2c(-c3cccnc3)nc(-c3cncs3)cc2c1=O [Compound 84] |
| > 500 | C[C@@H](CO)n1cnc2c(-c3cccnc3)nc(C3=CCCCC3)cc2c1=O [Compound 77, (S)-6-(Cyclohex-1-en-1-yl)-3-(1-hydroxypropan-2-yl)-8-(pyridin-3-yl)pyrido[3,4-d]pyrimidin-4(3H)-one] |
| < 100 | Cn1cc(-c2nc(-c3ccc(C(F)(F)F)cn3)cc3c(=O)n(C[C@H](O)C(F)(F)F)cnc23)cn1 [Compound 147] |
| 100 to 500 | C[C@@H](CO)n1cnc2c(C3=CCCN(C)C3)nc(-c3ccc(C(F)(F)F)nc3)cc2c1=O [Compound 91] |
| 100 to 500 | C[C@@H](CO)n1cnc2c(-n3cccn3)nc(-c3ccc(C(F)(F)F)cn3)cc2c1=O [Compound 167, (S)-3-(1-hydroxypropan-2-yl)-8-(1H-pyrazol-1-yl)-6-(5-(trifluoromethyl)pyridin-2-yl)pyrido[3,4-d]pyrimidin-4(3H)-one] |
| > 500 | C[C@@H](CO)n1cnc2c(-c3cccnc3)nc(N3CCCCC3)cc2c1=O [Compound 100] |
| > 500 | COCCc1cc2c(=O)n([C@@H](C)CO)cnc2c(-c2cccnc2)n1 [Compound 192, (S)-3-(1-hydroxypropan-2-yl)-6-(2-methoxyethyl)-8-(pyridin-3-yl)pyrido[3,4-d]pyrimidin-4(3H)-one] |
| < 100 | C[C@@H](CO)n1cnc2c(-n3cccn3)nc(-c3ccc(Cl)cc3)cc2c1=O [Compound 166, (S)-6-(4-chlorophenyl)-3-(1-hydroxypropan-2-yl)-8-(1H-pyrazol-1-yl)pyrido[3,4-d]pyrimidin-4(3H)-one] |
| 100 to 500 | C[C@@H](C(=O)N[C@@H]1COC[C@H]1O)n1cnc2c(-c3cccnc3)nc(-c3ccc(C(F)(F)F)nc3)cc2c1=O [Compound 158, (S)—N-((3R,4S)-4-hydroxytetrahydrofuran-3-yl)-2-(4-oxo-8-(pyridin-3-yl)-6-(6-(trifluoromethyl)pyridin-3-yl)pyrido[3,4-d]pyrimidin-3(4H)-yl)propenamide] |
| 100 to 500 | C[C@@H](CO)n1cnc2c(-c3cnn(C)c3)nc(-c3ccccc3)cc2c1=O [Compound 26] |
| 100 to 500 | C[C@@H](CO)n1cnc2c(-c3ccncc3)nc(-c3ccc(C(F)(F)F)nc3)cc2c1=O [Compound 4] |

| SMILES | IC50 [nM] |
| --- | --- |
| O=c1c2cc(-c3ccc(Cl)cc3)nc(-c3cccnc3)c2ncn1C1COCC1O (racemic) [Compound 32] | < 100 |
